Measured values: patent publication US20030135023A1, “Peptide structures useful for competitive modulation of dipeptidyl peptidase IV catalysis” (priority 2001, published 2003)
Values joined by “and” are separate entries in the source; they are usually repeats but may differ in a detail not shown here. Equal entries are not always repeated. Where two headings read alike, the source gives them in different places. Square brackets hold non-standard residues; d marks the D form. Peptide text beside a SMILES is read from it. Tle = CC(C)(C)[C@H](N)C(=O)O

How the values were obtained:
plasma DP IV = target: T1, plasma DP IV (Rattus norvegicus, UniProt P14740); assay: Plasma DP IV activity after intravasal and oral administration in Wistar rats; assay type: in vivo; settings: for inhibition at 100 mg/kg: rat, Wistar rats
T1 construct: The assay mixture consisted of 80 μl reagent and 20 μl plasma; from tissue; host or cells: plasma of Wistar rats
Protocol: Rats with intact catheter function were given the test substances intravasal (intraarterial) or oral, respectively, in random order (N=3 Wistar rats in each group). As positive control, […]. isoleucine thiazolidine*fumarate were administered intravasal.
After overnight fasting, 100 μl samples of heparinized arterial blood were collected at −30, −5, and 0 min into ice-cooled Eppendorf tubes (see below). The test substances were dissolved freshly in 1.0 ml saline (0.154 mol/l) and were given at 0 min either oral via a feeding tube ([…], 75 mm; Fine Science Tools, Heidelberg, Germany) or intravasal. For the intravasal route, the catheter was immediately flushed with 30 μl saline and an additional 1 ml of saline was given orally via the feeding tube.
Arterial blood samples were taken thereafter at 5, 10 (only in a limited number of experiments), 20, 40, 60 and 120 min from the carotid catheter of the conscious unrestrained rats and were always given into ice cooled Eppendorf tubes (Eppendorf-Netheler-Hinz, Hamburg, Germany) filled with 10 μl 1 M citrate buffer pH 3.0 for prevention of further hydrolysis of tripeptides by plasma DP IV activity. Eppendorf tubes were centrifuged immediately (12000 rpm for 2 min, Hettich Zentrifuge EBA 12, Tuttlingen; Germany): The plasma fractions were store on ice until analysis or were deeply frozen at −20 ° C. until analysis.
Plasma DP IV activity: The assay mixture consisted of 80 μl reagent and 20 μl plasma. Kinetic measurements of the formation of the yellow product 4-nitroaniline were performed at 390 nm for 1 min at 30° C. after 2 min pre-incubation at the same temperature. The activity was expressed as arbitrary units [AU] and DP IV activity [mU/ml].
The absolute values of plasma DP IV activity, the relative change of plasma DP IV activity and the time and extent of maximal inhibition were calculated. Data presentation included the presentation of area under the curve (AUC), which was used for evaluation of extent of inhibition of plasma DP IV activity during the two hours of observation. AUC was calculated using the trapezoidal rule.
To compare relative changes of parameters under the conditions of different initial values of DP IV activity an uniform standardised mean (values) was set up at the beginning of the test (see Figures and Tables).
Statistical evaluations were performed with Microsoft Excel® 97. All variables are presented as mean and standard deviation (SD). Treatment groups were compared by Student's t-test, within-group changes by paired t-test. Two-tailed values of p<0.05 were considered significant.

purified porcine DP IV = purified porcine DP IV (Sus scrofa, UniProt P22411); assay: Determination of Ki-values, Gly-Pro-pNA cleavage by DP IV; assay type: biochemical; settings: Gly-Pro-pNA 0.05-0.4 mM
Protocol: 100 μl inhibitor stock solution were mixed with 100 μl buffer (HEPES pH 7.6) and 50 μl substrate (Gly-Pro-pNA, final concentration 0.4 mM) and preincubated at 30° C. Reaction was started by addition of 20 μl purified porcine DP IV. Formation of the product pNA was measured at 405 nm over 10 min using the HTS 7000 Plus plate reader (Perkin Elmer) and slopes were calculated. The final inhibitor concentrations ranged between 1 mM and 30 nM.
Calculations were performed using the GraFit Software.

[1] = system: diabetic Zucker rats (fa/fa); assay: Oral glucose tolerance test (OGTT) in diabetic Zucker rats; assay type: in vivo; settings: 100 mg/kg b.w. p.o.
Protocol: N=30 male Zucker rats (fa/fa), mean age 11 weeks (5-12 weeks), mean body weight 350 g (150-400 g), were purchased from Charles River (Sulzfeld, Germany). They were kept for >12 weeks until all the fatty Zucker rats had the characteristics of manifest Diabetes mellitus.
After overnight fasting, the fatty Zucker rats were given placebo, positive control and test substance, respectively, via feeding tube orally (15 G, 75 mm; Fine Science Tools, Heidelberg, Germany) at −10 min. An oral glucose tolerance test (OGTT) with 2 g/kg b.w. glucose as a 40% solution (B. Braun Melsungen, Melsungen, Germany) was implemented at ±0 min. The glucose was administered via a second feeding tube. Arterial blood samples from the carotid catheter were collected at −30 min, −15 min, ±0 min and at 5, 10, 15, 20, 30, 40, 60, 90 and 120 min into 20 μl glass capillaries, which were placed in standard tubes filled with 1 ml solution for hemolysis (blood glucose measurement).
Blood glucose: Glucose levels were measured using the glucose oxidase procedure (Super G Glukosemeβgerät; Dr. Müller Gerätebau, Freital, Germany).

[2] = oral 100 mg/kg b.w., individual animals, 100 mg/kg

T1 sequence (P14740 37-767 limits assumed): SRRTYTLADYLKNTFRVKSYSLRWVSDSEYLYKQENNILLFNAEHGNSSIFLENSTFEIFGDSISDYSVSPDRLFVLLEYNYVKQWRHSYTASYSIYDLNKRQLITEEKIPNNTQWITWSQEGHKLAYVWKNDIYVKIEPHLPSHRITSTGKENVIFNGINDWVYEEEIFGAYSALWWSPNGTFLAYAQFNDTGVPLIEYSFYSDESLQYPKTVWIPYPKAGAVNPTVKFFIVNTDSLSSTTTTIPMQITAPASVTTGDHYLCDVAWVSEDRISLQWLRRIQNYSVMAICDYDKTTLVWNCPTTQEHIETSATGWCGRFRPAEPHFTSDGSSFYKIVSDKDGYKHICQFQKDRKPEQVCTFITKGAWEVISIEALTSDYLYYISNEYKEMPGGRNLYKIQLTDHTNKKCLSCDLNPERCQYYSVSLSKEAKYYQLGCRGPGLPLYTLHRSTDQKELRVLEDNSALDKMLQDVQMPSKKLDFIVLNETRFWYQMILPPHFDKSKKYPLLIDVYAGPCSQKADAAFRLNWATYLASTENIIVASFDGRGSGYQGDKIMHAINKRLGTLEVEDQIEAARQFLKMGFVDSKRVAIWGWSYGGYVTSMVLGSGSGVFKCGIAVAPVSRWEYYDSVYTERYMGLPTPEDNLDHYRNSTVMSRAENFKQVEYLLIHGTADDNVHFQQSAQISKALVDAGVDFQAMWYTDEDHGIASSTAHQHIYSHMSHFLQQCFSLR
Sequence of purified porcine DP IV (P22411 whole entry): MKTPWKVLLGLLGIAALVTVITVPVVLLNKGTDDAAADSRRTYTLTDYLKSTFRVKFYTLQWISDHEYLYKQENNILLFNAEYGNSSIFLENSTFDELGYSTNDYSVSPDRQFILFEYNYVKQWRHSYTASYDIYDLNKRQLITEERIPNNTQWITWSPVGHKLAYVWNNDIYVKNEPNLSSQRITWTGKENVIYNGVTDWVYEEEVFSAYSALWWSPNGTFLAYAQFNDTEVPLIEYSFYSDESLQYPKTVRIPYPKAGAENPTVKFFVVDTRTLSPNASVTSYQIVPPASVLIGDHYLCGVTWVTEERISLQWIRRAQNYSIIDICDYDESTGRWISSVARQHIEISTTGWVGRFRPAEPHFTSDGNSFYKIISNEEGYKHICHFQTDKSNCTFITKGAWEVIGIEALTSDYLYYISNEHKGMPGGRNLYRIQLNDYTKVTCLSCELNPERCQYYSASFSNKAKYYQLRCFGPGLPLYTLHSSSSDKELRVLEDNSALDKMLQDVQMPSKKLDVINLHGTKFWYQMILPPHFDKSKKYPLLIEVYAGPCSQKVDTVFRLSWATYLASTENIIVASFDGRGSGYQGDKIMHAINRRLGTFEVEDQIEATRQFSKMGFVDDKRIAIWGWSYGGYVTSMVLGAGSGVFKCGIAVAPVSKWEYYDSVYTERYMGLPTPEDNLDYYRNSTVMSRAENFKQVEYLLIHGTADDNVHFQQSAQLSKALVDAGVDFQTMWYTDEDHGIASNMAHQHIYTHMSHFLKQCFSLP

SMILES: CC[C@H](C)[C@H](NC(=O)[C@@H]1CCCN1C(=O)[C@@H](N)C(C)(C)C)C(=O)O [t-butyl-Gly-Pro-Ile] (H-[Tle]-Pro-Ile-OH; N-terminus and C-terminus assumed)
- Plasma DP IV activity (plasma DP IV; oral 100 mg/kg b.w., 2.5 min, Standardized Mean): 17.08 mU/ml
- Plasma DP IV activity (plasma DP IV; oral 100 mg/kg b.w., 2.5 min, individual animals, 100 mg/kg): 20.61 mU/ml and 9.21 mU/ml and 21.93 mU/ml
- Plasma DP IV activity (plasma DP IV; oral 100 mg/kg b.w., 5 min, Mean): 19.15 mU/ml
- Plasma DP IV activity (plasma DP IV; oral 100 mg/kg b.w., 5 min, Standardized Mean): 18.98 mU/ml
- Plasma DP IV activity (plasma DP IV; oral 100 mg/kg b.w., 5 min, individual animals, 100 mg/kg): 23.68 mU/ml and 13.16 mU/ml and 20.61 mU/ml
- Plasma DP IV activity (plasma DP IV; oral 100 mg/kg b.w., 7.5 min, Mean): 17.25 mU/ml
- Plasma DP IV activity (plasma DP IV; oral 100 mg/kg b.w., 7.5 min, Standardized Mean): 17.08 mU/ml
- Plasma DP IV activity (plasma DP IV; oral 100 mg/kg b.w., 7.5 min, individual animals, 100 mg/kg): 21.05 mU/ml and 12.28 mU/ml and 18.42 mU/ml
- Plasma DP IV activity (plasma DP IV; oral 100 mg/kg b.w., 10 min, Mean): 21.64 mU/ml
- Plasma DP IV activity (plasma DP IV; oral 100 mg/kg b.w., 10 min, Standardized Mean): 21.46 mU/ml
- Plasma DP IV activity (plasma DP IV; oral 100 mg/kg b.w., 10 min, individual animals, 100 mg/kg): 21.93 mU/ml and 25.88 mU/ml and 17.11 mU/ml
- Plasma DP IV activity (plasma DP IV; oral 100 mg/kg b.w., 15 min, Mean): 21.05 mU/ml
- Plasma DP IV activity (plasma DP IV; oral 100 mg/kg b.w., 15 min, Standardized Mean): 20.88 mU/ml
- Plasma DP IV activity (plasma DP IV; oral 100 mg/kg b.w., 15 min, individual animals, 100 mg/kg): 29.39 mU/ml and 15.79 mU/ml and 17.98 mU/ml
- Plasma DP IV activity (plasma DP IV; oral 100 mg/kg b.w., 20 min, Mean): 17.98 mU/ml
- Plasma DP IV activity (plasma DP IV; oral 100 mg/kg b.w., 20 min, Standardized Mean): 17.81 mU/ml
- Plasma DP IV activity (plasma DP IV; oral 100 mg/kg b.w., 20 min, individual animals, 100 mg/kg): 25.00 mU/ml and 10.97 mU/ml
- Plasma DP IV activity (plasma DP IV; oral 100 mg/kg b.w., 40 min, Mean): 19.30 mU/ml
- Plasma DP IV activity (plasma DP IV; oral 100 mg/kg b.w., 40 min, Standardized Mean): 19.12 mU/ml
- Plasma DP IV activity (plasma DP IV; oral 100 mg/kg b.w., 40 min, individual animals, 100 mg/kg): 21.49 mU/ml and 8.77 mU/ml and 27.63 mU/ml
- Plasma DP IV activity (plasma DP IV; oral 100 mg/kg b.w., 60 min, Mean): 19.44 mU/ml
- Plasma DP IV activity (plasma DP IV; oral 100 mg/kg b.w., 60 min, Standardized Mean): 19.27 mU/ml
- Plasma DP IV activity (plasma DP IV; oral 100 mg/kg b.w., 60 min, individual animals, 100 mg/kg): 21.93 mU/ml (2×) and 14.47 mU/ml
- Plasma DP IV activity (plasma DP IV; oral 100 mg/kg b.w., 120 min, Mean): 20.91 mU/ml
- Plasma DP IV activity (plasma DP IV; oral 100 mg/kg b.w., 120 min, Standardized Mean): 20.73 mU/ml
- Plasma DP IV activity (plasma DP IV; oral 100 mg/kg b.w., 120 min, individual animals, 100 mg/kg): 16.23 mU/ml and 23.25 mU/ml (2×)
- DP IV-AUC (plasma DP IV; oral 100 mg/kg b.w., Mean): −51.5 AU · min
- Drop of plasma DP IV activity (plasma DP IV; oral 100 mg/kg b.w., Mean): 10.53 mU/ml
- DP IV-AUC (plasma DP IV; [2]): 155.2 AU · min and −961.1 AU · min and 651.3 AU · min
- Drop of plasma DP IV activity (plasma DP IV; [2]): 6.58 mU/ml and 23.25 mU/ml and 1.75 mU/ml
- DP IV-AUC0-120 min (plasma DP IV; oral 100 mg/kg b.w., p<0.05 vs. intra-vasal): −336±162 mU·min·ml^−1
- inhibition at 100 mg/kg (plasma DP IV; iv, i.v., 100 mg/kg, read-out: DPIV inhibition at tmax, i.v.): 71%
- inhibition at 100 mg/kg (plasma DP IV; po, p.o., 100 mg/kg, read-out: DPIV inhibition at tmax, p.o.): 28%
- Ki (purified porcine DP IV): 3.1 µM
- Improvement of glucose tolerance ([1]; AUC test compound vs AUC Control): 14.8%
- AUC test compound (glucose, OGTT) ([1]; OGTT 2 g/kg glucose): 653.2 mmol·min/L
